Measured values taken from patent US20060275856A1, “Method for analyzing cell free notch cleavage and method for drug screening” (OSAKA INDUSTRIAL PROMOTION ORGANIZATION, priority 2003, published 2006).
Blank lines part the entries; values can stand above or below the compound they belong to.

Key:
presenilin/γ-secretase [1] = target: T1, presenilin/γ-secretase (Homo sapiens, UniProt P49768); assay: Multiple substrate cell-free assay system combining βAPP and Notch-1 (IP/MALDI-TOF MS of Aβ, AICD, F-Nβ, NICDΔC); type: biochemical
T1 construct: A crude purified membrane fraction of K293 cells co-expressing F-NEXTΔC and swβAPP; endogenous in cells; host or cells: K293 (human embryonic kidney 293) cells co-expressing F-NEXTΔC and swβAPP; crude membrane fraction (CMF)
Protocol: In the case of cell-free γ-secretase assay, MS washing buffer composed of 4 time amount or more of 0.1% n-octylglucoside, 140 mM NaCl, 10 mM Tris (pH 8.0) and 0.025% sodium azide was added to an S1 or S2 fraction which was the supernatant of ultracentrifugation after the assay. The mixture was immunoprecipitated at 4° C. for 4 hours using 6636, 6618, 4G8 or M2 agarose. After the immunoprecipitation, the precipitate was washed three times at 4° C. for 10 minutes using the MS washing buffer. The precipitate was washed once more with 10 mM Tris (pH 8.0) containing 0.025% sodium azide, and then simply washed once more with water. A peptide bound to the specific antibody in the precipitate consequently obtained was eluted with TFA/acetonitrile/water (TFA: acetonitrile: water=1:20:20) saturated with α-cyano-4-hydroxy cinnamic acid. The solubilized sample was dried on a stainless plate, and analyzed by MALDI-TOF MS. MS peaks were calibrated by angiotensin (Sigma) and insulin β chain (Sigma).
Human embryonic kidney 293 cells (K293 cells) in which F-NEXTΔC and Sweden type mutant βAPP (swβAPP) had been constitutively co-expressed were made by transfecting with the Sweden type mutant βAPP using Lipofectamine 2000 (Invitrogen), selecting by G418 and subsequently, transfecting the cells expressing βAPP with F-NEXTΔC. It was confirmed first that F-NEXTΔC and swβAPP had been expressed in the lysate of this cell, and simultaneously that F-Nβ and Aβ had been released in the culture supernatant (FIG. 5A to 5C). The composition of F-Nβ and Aβ molecular species were examined and it was confirmed that they were not inconsistent with previous reports (results are not shown).
A crude purified membrane fraction of K293 cells co-expressing F-NEXTΔC and swβAPP, pretreated with 100 nM of L685,458 or 100 nM of DAPT for 2 hours before extracting the membrane fraction was used. The S1-40 min fraction was collected from this crude purified membrane fraction. The precipitate fraction after collecting the S1-40 min fraction was resuspended in the reaction buffer, and then sonicated for a short time. Subsequently the fraction was centrifuged at 100,000×g for 15 minutes to collect the supernatant fraction as the S2-40 min fraction.
The fractions were immunoprecipitated with the antibody specific for each fragment (4G8 for Aβ, 6618 for AICD, M2 agarose for F-Nβ and […] for NICDΔC), and analyzed using the MALDI-TOF mass analyzer (FIG. 8). NICDΔC and AICD de novo produced were identified in the S1-40 min fraction. F-Nβ and Aβ were identified in the S2-40 min fraction (FIG. 8). Even when the change was added to the multiple substrate cell-free assay system combining βAPP and Notch-1, the diversity in the proteolytic sites by the presenilin/γsecretase was conserved.
The cells co-expressing F-NEXTΔC and swβAPP were cultured up to the confluent phase, and treated with the γ-secretase inhibitor at each concentration for 3 hours. As the γ-secretase inhibitor, L685,458 which was a transition-state analogue which binds to an active center of the presenilin/γ-secretase and DAPT which was not the transition-state analogue were used. The cells after the treatment were washed twice with ice-cooled PBS to collect. These cells were lysed and homogenated to extract CMF. Subsequently, this membrane fraction was suspended in alkaline washing buffer and left stand at 4° C. for 30 minutes. Then, the resuspension and the centrifugation were repeated three times using the reaction buffer to wash out the alkaline washing buffer. It appears that most γ-secretase inhibitor contained in CMF was washed out until this process. Finally, CMF was suspended once more in the reaction buffer, and the cell-free reaction was performed. The amounts of AICD and NICDΔC in the S1-40 min fraction and the amounts of Aβ and Nβ in the S2-40 min fraction were semi-quantified from relative heights of MALDI-TOF MS peaks, and evaluated by four scales of −, +, ++ and +++.

presenilin/γ-secretase [2] = target: T1, presenilin/γ-secretase; assay: as above; type: biochemical; settings: cells pretreated at 1 μM and further 1 μM added in all buffers including homogenate and reaction buffer
presenilin/γ-secretase [3] = target: T1, presenilin/γ-secretase; assay: Pulse-chase experiment: secretion of F-Nβ from K293 cells expressing F-NEXTΔC or F-NEXT; type: cell-based; settings: 1 μM, pretreating for 2 hours (FIG. 4D)
Protocol: In order to determine whether an N terminal fragment (NTF: F-Nβ) was released from the cells which had expressed F-NEXTΔC or F-NEXT as a result of proteolysis by presenilin/γ-secretase, the cells (K293 cells) which had stably expressed F-NEXTΔC or F-NEXT were cultured in a 10 cm dish up to a confluent phase. The cells were cultured in DMEM solution deprived of methionine (obtained by modifying a commercially available one from Gibco) for 45 minutes to be starved with methionine. Subsequently, the medium was replaced with the same DMEM solution deprived of methionine, and simultaneously the cells were metabolically pulse-labeled with 300 μCi of [^35S]-methionine/cysteine (Pro-mix, Amersham) for 30 minutes. Then the cells were chased in 10% FCS/DMEM for 2 hours.
After termination of a chase period, the medium was collected and immediately placed on ice. Then cell debris was eliminated by centrifuging at 3,000×g. Subsequently, a protease inhibitor cocktail (1:1000, Sigma) and 0.025% sodium azide were added. The sample was immunoprecipitated with 4G8 antibody or anti-FLAG-M2-agarose (Sigma) overnight, and a precipitate was washed three times with RIPA buffer containing 0.1% SDS, 0.5% deoxycholic acid and 1% Triton X-100. Subsequently, SDS-PAGE was performed using 10 to 20% gradient gel of Tris-tricine (Invitrogen). […]

[4] = pretreated at 1 μM, thoroughly washed out

FLAG-NEXT, sequence (chain, as listed by the source): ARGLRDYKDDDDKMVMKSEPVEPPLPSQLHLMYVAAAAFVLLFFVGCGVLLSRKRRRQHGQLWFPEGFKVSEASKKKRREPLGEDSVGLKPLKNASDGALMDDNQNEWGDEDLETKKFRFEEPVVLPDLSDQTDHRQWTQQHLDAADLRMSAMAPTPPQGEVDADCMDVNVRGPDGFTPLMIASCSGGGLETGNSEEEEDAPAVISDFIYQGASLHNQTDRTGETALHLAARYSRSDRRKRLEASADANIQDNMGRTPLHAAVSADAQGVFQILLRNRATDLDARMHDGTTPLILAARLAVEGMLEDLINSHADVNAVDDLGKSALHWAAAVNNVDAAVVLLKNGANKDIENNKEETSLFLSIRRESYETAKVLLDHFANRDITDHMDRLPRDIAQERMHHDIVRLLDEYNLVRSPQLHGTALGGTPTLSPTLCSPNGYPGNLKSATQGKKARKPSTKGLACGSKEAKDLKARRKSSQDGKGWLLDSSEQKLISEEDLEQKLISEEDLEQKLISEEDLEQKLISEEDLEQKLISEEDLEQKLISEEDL

- action on γ49 and corresponding S3 cleavage (presenilin/γ-secretase [1]): less sensitively
- action upon γ40 and corresponding S4 cleavage (presenilin/γ-secretase [1]): acted sensitively
- Aβ/Nβ, γ cleaved NTF (S4/γ40 cleavage) (presenilin/γ-secretase [1]; [4]): not observed
- de novo production of AUCD/NICD which was γ cleaved CTF (S3/γ49 cleavage) (presenilin/γ-secretase [1]; [4]): recognized
- peak heights of four fragments (presenilin/γ-secretase [1]; pretreated with 10 nM): maximum on average
- de novo production of F-Nβ/Aβ (presenilin/γ-secretase [1]; pretreatment concentration decreased to 100 nM and 10 nM): recovered
- production of F-Nβ, Aβ, NICDΔC and AICD (all of four fragments) (presenilin/γ-secretase [2]): not observed at all
- secretion of F-Nβ (presenilin/γ-secretase [3]): almost completely inhibited
Compound: CC(C)C[C@H](NC(=O)[C@H](Cc1ccccc1)C[C@@H](O)[C@H](Cc1ccccc1)NC(=O)OC(C)(C)C)C(=O)N[C@@H](Cc1ccccc1)C(N)=O [L685,458]

Compound: wild type PS1 (presenilin), stably expressed in K293 cells
- degradation of the F-NEXT derivative during 2 hours' chase (F-NEXT V1744G): F-NEXT V1744G and F-NEXT V1744L in the background of wild presenilin were degraded and their amounts were decreased during 2 hours' chase as with F-NEXT
- degradation of the F-NEXT derivative during 2 hours' chase (F-NEXT V1744L): F-NEXT V1744G and F-NEXT V1744L in the background of wild presenilin were degraded and their amounts were decreased during 2 hours' chase as with F-NEXT

Compound: PS1 D385N, dominant negative mutant of presenilin, stably expressed in K293 cells
- NICD production and decrease of the F-NEXT derivative after 2 hours' chase (F-NEXT V1744G): not only the NICD production but also the decrease of F-NEXT and its derivatives were not observed after 2 hours' chase
- NICD production and decrease of the F-NEXT derivative after 2 hours' chase (F-NEXT V1744L): not only the NICD production but also the decrease of F-NEXT and its derivatives were not observed after 2 hours' chase
- NICD production and decrease of F-NEXT after 2 hours' chase (FLAG-NEXT): not only the NICD production but also the decrease of F-NEXT and its derivatives were not observed after 2 hours' chase

- action on γ49 and corresponding S3 cleavage (presenilin/γ-secretase [1]): less sensitively
- action upon γ40 and corresponding S4 cleavage (presenilin/γ-secretase [1]): acted sensitively
- effects on the four fragments compared with L685,458 (presenilin/γ-secretase [1]; same pretreatment experiment (FIGS. 9A and 9B)): extremely similar
Compound: C[C@H](NC(=O)Cc1cc(F)cc(F)c1)C(=O)N[C@H](C(=O)OC(C)(C)C)c1ccccc1 [DAPT]
